According to patent US20080146500A1, “Selective Vpac2 Receptor Peptide Agonists” (priority 2004, published 2008):
Ends that are not written are not given here.

System: Normal Wistar rats
Test: Intravenous glucose tolerance test (IVGTT), serum glucose and insulin
Assay type: in vivo, rat
Protocol: Intravenous glucose tolerance test (IVGTT): Normal Wistar rats are fasted overnight and are anesthetized prior to the experiment. A blood sampling catheter is inserted into the rats. The compound is given in the jugular vein. Blood samples are taken from the carotid artery. A blood sample is drawn immediately prior to the injection of glucose along with the compound. After the initial blood sample, glucose mixed with compound is injected intravenously (i.v.). Compound may also be injected intravenously or subcutaneously prior to the glucose challenge. A glucose challenge of 0.5 g/kg body weight is given, injecting a total of 1.5 mL vehicle with glucose and agonist per kg body weight. The peptide concentrations are varied to produce the desired dose in μg/kg. Blood samples are drawn at 2, 4, 6 and 10 minutes after giving glucose. The control group of animals receives the same vehicle along with glucose, but with no compound added. In some instances, a 30 minute post-glucose blood sample is drawn. Aprotinin is added to the blood sample (250-500 kIU/ml blood). The serum is then analyzed for glucose and insulin using standard methodologies.
The assay uses a formulated and calibrated peptide stock in PBS. Normally, this stock is a prediluted 100 μM stock. However, a more concentrated stock with approximately 1 mg agonist per 1 mL is used. The specific concentration is always known. Variability in the maximal response is mostly due to variability in the vehicle dose.

P137: PEGylated material obtained from P120 and methoxy-PEG2-MAL-40K (HSDAVFTDNYTRLRKQVAAKKYLQSIKNKRYGGPSSGAPPPC; also: PEGylated with methoxy-PEG2-MAL-40K, site not given here) [Agonist P137]
% increase AUC (insulin, 0-10 min after glucose) (Dose = 10 μg/kg iv, time between glucose & compound 0 h): +366%
% increase AUC (insulin, 0-10 min after glucose) (Dose = 10 μg/kg iv, time between glucose & compound 4 h): +193%
% increase AUC (insulin, 0-10 min after glucose) (Dose = 30 μg/kg iv, time between glucose & compound 4 h): +321%
% increase AUC (insulin, 0-10 min after glucose) (Dose = 100 μg/kg iv, time between glucose & compound 4 h): +487%
